# Test results published in ChEMBL document CHEMBL1138554, “Synthesis and QSAR evaluation of 2-(substituted phenyl)-1H-benzimidazoles and [2-(substituted phenyl)-benzimidazol-1-yl]-pyridin-3-yl-methanones” (Eur J Med Chem, 2009).
# Columns and labels:
# Candida albicans = assay: Antifungal activity against Candida albicans at 37 degC after 48 hrs by tube dilution method; type: functional; set-up: unit not given here
# Aspergillus niger = assay: Antifungal activity against Aspergillus niger at 25 degC after 7 days by tube dilution method; type: functional; set-up: unit not given here
# Staphylococcus aureus = assay: Antimicrobial activity against Staphylococcus aureus at 37 degC after 24 hrs by tube dilution method; type: functional; set-up: unit not given here
# Escherichia coli = assay: Antimicrobial activity against Escherichia coli at 37 degC after 24 hrs by tube dilution method; type: functional; set-up: unit not given here
# [1] = Octanol-water partition coefficient, log P of the compound; type: physicochemical
# Bacillus subtilis = assay: Antimicrobial activity against Bacillus subtilis at 37 degC after 24 hrs by tube dilution method; type: functional; set-up: unit not given here
Compound,-logMIC (Candida albicans),-logMIC (Aspergillus niger),-logMIC (Staphylococcus aureus),-logMIC (Escherichia coli),logP [1],-logMIC (Bacillus subtilis)
O=C(c1cccnc1)n1c(-c2ccc(Cl)cc2)nc2ccccc21,1.73,1.43,1.73,1.73,4.7,1.43
COc1ccccc1-c1nc2ccccc2[nH]1,1.25,1.35,1.5,1.65,2.86,1.71
O=C(c1cccnc1)n1c(-c2cccc([N+](=O)[O-])c2)nc2ccccc21,1.74,1.44,1.44,1.44,4.13,1.44
O=C(c1cccnc1)n1c(-c2ccccc2[N+](=O)[O-])nc2ccccc21,1.74,1.44,1.5,1.5,4.13,1.5
O=C(c1cccnc1)n1c(-c2ccccc2Cl)nc2ccccc21,1.73,1.43,1.73,1.65,4.7,1.43
OC(Cn1cncn1)(Cn1cncn1)c1ccc(F)cc1F [FLUCONAZOLE],2.64,2.64,,3.33,,
O=[N+]([O-])c1ccc(-c2nc3ccccc3[nH]2)cc1,1.58,1.58,1.01,1.2,3.07,1.78
O=C(O)c1cn(C2CC2)c2cc(N3CCNCC3)c(F)cc2c1=O [CIPROFLOXACIN],,,3.33,,,3.33
O=C(c1cccnc1)n1c(-c2ccc(O)cc2)nc2ccccc21,1.7,1.4,1.7,1.8,3.89,1.57
Oc1ccc(-c2nc3ccccc3[nH]2)cc1,1.43,1.33,1.53,1.7,2.83,1.79
Clc1ccc(-c2nc3ccccc3[nH]2)cc1,1.56,1.4,1.66,1.66,3.63,1.51
O=C(c1cccnc1)n1c(-c2cccc(Cl)c2)nc2ccccc21,1.73,1.43,1.79,1.8,4.7,1.5
O=C(O)c1ccccc1-c1nc2ccccc2[nH]1,1.48,1.28,1.5,1.7,2.81,1.7
c1ccc(-c2nc3ccccc3[nH]2)cc1,1.49,1.49,1.46,1.72,3.11,1.68
Clc1ccccc1-c1nc2ccccc2[nH]1,1.26,1.26,1.4,1.49,3.63,1.49
COc1ccccc1-c1nc2ccccc2n1C(=O)c1cccnc1,1.72,1.42,1.42,1.6,3.93,1.42
O=C(c1cccnc1)n1c(-c2ccc([N+](=O)[O-])cc2)nc2ccccc21,1.74,1.44,1.44,1.44,4.13,1.44
O=[N+]([O-])c1ccccc1-c1nc2ccccc2[nH]1,1.58,1.58,1.17,1.35,3.07,1.73
O=C(O)c1ccccc1-c1nc2ccccc2n1C(=O)c1cccnc1,1.74,1.44,1.44,1.44,4.13,1.44
O=[N+]([O-])c1cccc(-c2nc3ccccc3[nH]2)c1,1.58,1.58,1.47,1.41,3.07,1.72
Clc1cccc(-c2nc3ccccc3[nH]2)c1,1.26,1.36,1.49,1.65,3.63,1.49
